The values below come from doi:10.1101/2023.03.24.534094v2 (biorxiv, 2023).

Read-outs that look alike come from different tables or passages of the source.

Test in all cases: biochemical
The target in one assay is ABL1 (Homo sapiens, UniProt P00519).
For the next assay, the target named is CDKL1 (Homo sapiens, UniProt Q00532).
The next assay deals with T1, DCAMKL1 (Homo sapiens, UniProt O15075).
T1 sequence (O15075 1-740): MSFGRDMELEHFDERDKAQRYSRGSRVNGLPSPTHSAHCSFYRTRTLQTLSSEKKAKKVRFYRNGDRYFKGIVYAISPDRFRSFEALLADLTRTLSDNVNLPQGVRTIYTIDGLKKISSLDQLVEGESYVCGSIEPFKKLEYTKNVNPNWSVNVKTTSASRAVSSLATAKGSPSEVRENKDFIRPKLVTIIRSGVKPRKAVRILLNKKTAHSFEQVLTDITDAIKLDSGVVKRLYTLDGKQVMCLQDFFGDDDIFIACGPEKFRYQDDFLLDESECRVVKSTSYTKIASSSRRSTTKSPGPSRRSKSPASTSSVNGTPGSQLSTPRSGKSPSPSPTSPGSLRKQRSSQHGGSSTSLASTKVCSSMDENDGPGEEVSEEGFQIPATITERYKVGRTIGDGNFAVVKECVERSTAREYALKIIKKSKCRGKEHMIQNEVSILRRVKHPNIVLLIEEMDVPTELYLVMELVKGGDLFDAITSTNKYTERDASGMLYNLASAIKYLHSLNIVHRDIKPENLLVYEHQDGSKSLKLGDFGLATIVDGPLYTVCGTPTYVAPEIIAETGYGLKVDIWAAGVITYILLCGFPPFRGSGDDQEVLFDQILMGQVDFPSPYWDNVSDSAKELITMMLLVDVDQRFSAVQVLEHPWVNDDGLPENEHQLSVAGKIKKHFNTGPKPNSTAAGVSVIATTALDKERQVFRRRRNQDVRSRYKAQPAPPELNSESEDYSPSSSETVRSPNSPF

A further assay concerns the target T2, MAP3K5 (Homo sapiens, UniProt Q99683).
T2 sequence (Q99683 1-1374): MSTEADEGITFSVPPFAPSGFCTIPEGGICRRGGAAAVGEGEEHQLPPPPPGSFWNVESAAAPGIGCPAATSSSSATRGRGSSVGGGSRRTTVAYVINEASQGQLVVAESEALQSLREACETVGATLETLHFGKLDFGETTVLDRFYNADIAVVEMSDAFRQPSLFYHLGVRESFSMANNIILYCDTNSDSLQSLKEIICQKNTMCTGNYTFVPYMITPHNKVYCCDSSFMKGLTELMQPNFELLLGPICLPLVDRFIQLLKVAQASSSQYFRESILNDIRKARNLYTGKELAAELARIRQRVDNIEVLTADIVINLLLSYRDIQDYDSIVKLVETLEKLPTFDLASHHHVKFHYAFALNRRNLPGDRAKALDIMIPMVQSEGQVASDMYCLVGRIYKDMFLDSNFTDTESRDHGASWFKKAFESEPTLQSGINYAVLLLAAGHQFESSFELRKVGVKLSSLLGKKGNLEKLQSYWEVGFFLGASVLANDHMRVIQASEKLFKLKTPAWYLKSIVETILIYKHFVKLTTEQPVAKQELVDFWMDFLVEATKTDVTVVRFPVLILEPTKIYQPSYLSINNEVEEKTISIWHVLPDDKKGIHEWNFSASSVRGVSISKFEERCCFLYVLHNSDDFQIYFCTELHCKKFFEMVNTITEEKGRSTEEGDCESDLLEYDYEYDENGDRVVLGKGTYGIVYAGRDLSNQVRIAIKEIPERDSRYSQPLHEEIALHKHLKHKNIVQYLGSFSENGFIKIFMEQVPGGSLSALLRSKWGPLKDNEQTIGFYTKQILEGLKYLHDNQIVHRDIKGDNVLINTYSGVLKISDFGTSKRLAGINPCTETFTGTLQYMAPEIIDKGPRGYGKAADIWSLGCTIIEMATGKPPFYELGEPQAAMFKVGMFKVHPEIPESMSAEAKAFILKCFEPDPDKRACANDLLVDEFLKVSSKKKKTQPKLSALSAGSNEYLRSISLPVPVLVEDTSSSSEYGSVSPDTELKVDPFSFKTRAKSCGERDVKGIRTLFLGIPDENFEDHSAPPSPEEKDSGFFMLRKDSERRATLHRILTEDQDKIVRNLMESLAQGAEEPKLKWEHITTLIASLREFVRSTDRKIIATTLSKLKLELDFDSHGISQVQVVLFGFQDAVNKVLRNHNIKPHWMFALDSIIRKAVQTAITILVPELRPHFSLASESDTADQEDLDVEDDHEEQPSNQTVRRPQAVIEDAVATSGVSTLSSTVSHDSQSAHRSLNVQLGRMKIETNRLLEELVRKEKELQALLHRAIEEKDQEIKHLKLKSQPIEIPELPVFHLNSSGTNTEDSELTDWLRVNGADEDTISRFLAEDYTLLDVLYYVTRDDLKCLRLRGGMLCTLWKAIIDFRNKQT

The target of a further assay is T3, VRK1 (Homo sapiens, UniProt Q99986).
T3 sequence (Q99986 1-396): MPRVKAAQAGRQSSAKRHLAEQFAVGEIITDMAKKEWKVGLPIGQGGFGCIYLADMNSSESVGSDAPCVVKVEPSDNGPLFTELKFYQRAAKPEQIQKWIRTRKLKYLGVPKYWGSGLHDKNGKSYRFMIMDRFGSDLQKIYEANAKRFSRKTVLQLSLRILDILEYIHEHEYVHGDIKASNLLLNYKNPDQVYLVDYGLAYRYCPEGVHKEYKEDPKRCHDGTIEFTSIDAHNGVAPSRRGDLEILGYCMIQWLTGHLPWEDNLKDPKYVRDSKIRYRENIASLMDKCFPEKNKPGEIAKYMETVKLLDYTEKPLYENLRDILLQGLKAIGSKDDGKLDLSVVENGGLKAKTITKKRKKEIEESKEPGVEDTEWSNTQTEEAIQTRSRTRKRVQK

Sequence of CDKL1 (Q00532 whole entry): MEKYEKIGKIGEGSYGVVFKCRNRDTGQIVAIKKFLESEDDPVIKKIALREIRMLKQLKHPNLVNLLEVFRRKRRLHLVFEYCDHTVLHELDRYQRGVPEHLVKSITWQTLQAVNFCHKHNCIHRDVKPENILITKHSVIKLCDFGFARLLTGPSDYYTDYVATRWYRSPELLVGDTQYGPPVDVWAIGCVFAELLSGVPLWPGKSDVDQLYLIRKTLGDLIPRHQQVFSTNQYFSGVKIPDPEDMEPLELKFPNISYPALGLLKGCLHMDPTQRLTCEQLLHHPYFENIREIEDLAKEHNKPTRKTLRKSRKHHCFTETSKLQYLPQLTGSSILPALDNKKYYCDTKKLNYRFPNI
Sequence of ABL1 (P00519 whole entry): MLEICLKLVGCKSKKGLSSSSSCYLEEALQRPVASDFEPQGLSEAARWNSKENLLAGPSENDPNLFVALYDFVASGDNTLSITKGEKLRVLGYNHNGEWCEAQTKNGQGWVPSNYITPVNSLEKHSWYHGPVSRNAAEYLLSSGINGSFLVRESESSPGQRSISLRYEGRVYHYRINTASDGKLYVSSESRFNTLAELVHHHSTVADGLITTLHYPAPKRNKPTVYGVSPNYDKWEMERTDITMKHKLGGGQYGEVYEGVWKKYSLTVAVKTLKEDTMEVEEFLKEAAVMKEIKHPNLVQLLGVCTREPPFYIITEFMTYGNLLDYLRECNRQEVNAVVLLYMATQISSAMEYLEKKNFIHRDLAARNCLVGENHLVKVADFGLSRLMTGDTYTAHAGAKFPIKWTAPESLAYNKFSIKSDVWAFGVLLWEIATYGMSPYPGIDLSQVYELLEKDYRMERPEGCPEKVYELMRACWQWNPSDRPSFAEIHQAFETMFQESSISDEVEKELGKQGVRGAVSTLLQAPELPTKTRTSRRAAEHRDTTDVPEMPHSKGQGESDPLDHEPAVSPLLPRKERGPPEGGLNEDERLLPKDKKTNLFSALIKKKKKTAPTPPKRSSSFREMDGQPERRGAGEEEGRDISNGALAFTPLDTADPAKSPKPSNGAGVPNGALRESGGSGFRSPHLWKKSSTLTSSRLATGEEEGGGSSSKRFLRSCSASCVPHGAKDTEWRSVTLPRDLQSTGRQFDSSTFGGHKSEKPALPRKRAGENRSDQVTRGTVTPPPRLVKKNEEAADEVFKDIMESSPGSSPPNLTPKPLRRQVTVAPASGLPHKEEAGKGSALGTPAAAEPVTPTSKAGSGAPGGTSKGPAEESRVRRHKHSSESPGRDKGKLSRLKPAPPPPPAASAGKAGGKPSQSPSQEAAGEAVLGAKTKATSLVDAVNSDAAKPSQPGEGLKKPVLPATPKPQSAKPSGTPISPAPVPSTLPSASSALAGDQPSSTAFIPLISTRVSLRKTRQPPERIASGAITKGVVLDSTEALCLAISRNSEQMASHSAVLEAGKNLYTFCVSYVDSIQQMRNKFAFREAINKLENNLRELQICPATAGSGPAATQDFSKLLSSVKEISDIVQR

Consider `CNc1ncc2cc(-c3cc(C(F)(F)F)ccc3Cl)c(=O)n(CCCCN)c2n1` [compound 9, 8-(4-Aminobutyl)-6-(2-chloro-5-(trifluoromethyl)phenyl)-2-(methylamino)pyrido[2,3-d]pyrimidin-7(8H)-one], for which the ΔTm at 10 µM at ABL1 (read-out: dTm 9) was found to be 2.5 °C; on CDKL1 (read-out: dTm 9), 0 °C; at DCAMKL1 (read-out: dTm 9), 0.5 °C; on MAP3K5 (read-out: dTm 9), 0.4 °C; on VRK1 (read-out: dTm 9) it was 0.1 °C.

As to `CNc1ncc2cc(-c3cc(Cl)ccc3Cl)c(=O)n(CCCCN)c2n1` [compound 8, 8-(4-Aminobutyl)-6-(2,5-dichlorophenyl)-2-(methylamino)pyrido[2,3-d]pyrimidin-7(8H)-one], the ΔTm at 10 µM on ABL1 (read-out: dTm 8) worked out at 6.2 °C; on CDKL1 (read-out: dTm 8) it was 0.2 °C; at DCAMKL1 (read-out: dTm 8) it was 1.2 °C; on MAP3K5 (read-out: dTm 8), 1.5 °C; at VRK1 (read-out: dTm 8), 0.7 °C.

For the compound `CNc1ncc2cc(-c3cc(Br)ccc3Br)c(=O)n(CCCCN)c2n1` [compound 11, 8-(4-Aminobutyl)-6-(2,5-dibromophenyl)-2-(methylamino)pyrido[2,3-d]pyrimidin-7(8H)-one], the ΔTm at 10 µM at ABL1 (read-out: dTm 11) amounted to 4.8 °C; on CDKL1 (read-out: dTm 11), 0.4 °C; on DCAMKL1 (read-out: dTm 11), 1.1 °C; at MAP3K5 (read-out: dTm 11), 1.6 °C; on VRK1 (read-out: dTm 11) it was 0.5 °C.

As to `CNc1ncc2cc(-c3cc(F)c(-c4cccc(C)n4)cc3F)c(=O)n(CCCCN)c2n1` [compound 12, 8-(4-Aminobutyl)-6-(2,5-difluoro-4-(6-methylpyridin-2-yl)phenyl)-2-(methylamino)pyrido[2,3-d]pyrimidin-7(8H)-one], the ΔTm at 10 µM at ABL1 (read-out: dTm 12) is 3.5 °C; on CDKL1 (read-out: dTm 12) it was 0.2 °C; at DCAMKL1 (read-out: dTm 12), -1.6 °C; at MAP3K5 (read-out: dTm 12), 9.1 °C; on VRK1 (read-out: dTm 12), 0.3 °C.

Turning to `CNc1ncc2cc(-c3cc(Cl)ccc3Br)c(=O)n(CCCCN)c2n1` [compound 10, 8-(4-Aminobutyl)-6-(2-bromo-5-chlorophenyl)-2-(methylamino)pyrido[2,3-d]pyrimidin-7(8H)-one], the ΔTm at 10 µM came to 6.2 °C on ABL1 (read-out: dTm 10); 0.3 °C on CDKL1 (read-out: dTm 10); 0.9 °C on DCAMKL1 (read-out: dTm 10); 1.7 °C on MAP3K5 (read-out: dTm 10); 0.7 °C at VRK1 (read-out: dTm 10).
